According to patent US20230374007A1, “COMPOUNDS AND THEIR USE IN TREATING CANCER” (AstraZeneca AB, priority 2020, published 2023):

Biological target: T1, cereblon (CRBN)—DNA damage protein 1 (DDB1) complex (Homo sapiens, UniProt Q96SW2)
T1 construct: encoding amino acid residues 1 to 442 (Uniprot Q96SW2); hexahistidine (N); thrombin cleavage site (N); made in house; host or cells: Sf9 insect cells (baculovirus co-infection)
Test: Cereblon HTRF binding assay
Source text: The synthesized sequence was designed to encode an N-terminal hexahistidine tag, a thrombin cleavage site, an AviTag™ and a tobacco etch virus protease (TEV) cleavage site followed by the CBRN sequence. The resulting protein sequence is listed below.
The synthesized sequence was designed to encode an N-terminal hexahistidine tag, a tobacco etch virus protease (TEV) cleavage site followed by the DDB1 sequence. […] The linker amino acid residues are underlined and shown in italics.
Baculovirus production of CBRN and DDB1: Recombinant bacmid and P2 virus of CBRN and DDB1 was generated according to the Bac-to-Bac Baculovirus Expression System manual (ThermoFisher Scientific).
Protein Purification: Protein purification was initiated by thawing cells (resuspended in Lysis buffer) at r.t. Once thawed, NaCl was added to a final concentration of 200 mM, followed by 0.01 μL/mL Benzonase™ and the lysate was incubated with slow stirring for 20 minutes. After the freeze-thaw lysis, the whole cell lysate was centrifuged at 48 000 g for 45 minutes and all following purification steps were done on ice or in cold-room. Supernatant (cell lysate) was mixed with 1 mL/50 mL lysate Ni Sepharose™ 6 Fast Flow (Cytiva) pre-equilibrated with Wash buffer (50 mM Tris-Cl pH 8, 20 mM Imidazole, 500 mM NaCl, 10% Glycerol, 1 mM TCEP) and incubated with slow stirring for 1 h. The mix was loaded in a 70 mL open gravity flow column, washed with 10 bed volumes of Wash buffer, and stepwise eluted with 300 mM imidazole in Wash buffer. […] After biotinylation, the CBRN/DDB1 complex was purified by Size Exclusion Chromatography on a HiLoad™ 26/60 Superdex™ 200 column equilibrated in SEC buffer (50 mM HEPES pH 7.5, 200 mM NaCl, 5% glycerol, 1 mM TCEP) before flash-freezing in liquid nitrogen and storage at −80° C.
The assay mixture in a total volume of 4 μL consists of 50 mM Tris-HCl at pH 7.5, 100 mM NaCl, 0.01% Pluronic F127, 1 mM TCEP, 500 μM EDTA, 0.2 nM CRBN-DDB1, 0.2 nM terbium cryptate labeled streptavidin, and 2 nM Cyanine 5-labeled lenalidomide as the probe. […] Reagents were dispensed into the 384-well assay microplate using a Certus Flex liquid dispenser. After incubation for 2 h at r.t., the assay plates were read on a PHERAstar FSX plate reader (BMG Labtech) in the HTRF mode. The raw data from PHERAstar was directly imported into Genedata Screener for analysis. […] The ratio was normalized to positive and negative controls on the same plates to calculate percent inhibition: I %=(I−NC)/(PC−NC), where I are readings from the compound treated well, NC and PC are average readings from negative control wells and positive control wells, respectively. IC50 values were obtained by fitting the I % vs. compound concentration [I] to I %=S0+(SInf−S0)/(1+((IC50/[I])^n)), where S0 is the fitted activity level at zero concentration of test compound, SInf is the fitted activity level at […] concentration of test compound, and n is the hill coefficient of the curve.
The IC50 values reported below are the calculated mean result of one or more experiments.

T1 sequence (Q96SW2 with tags, fused parts or gaps): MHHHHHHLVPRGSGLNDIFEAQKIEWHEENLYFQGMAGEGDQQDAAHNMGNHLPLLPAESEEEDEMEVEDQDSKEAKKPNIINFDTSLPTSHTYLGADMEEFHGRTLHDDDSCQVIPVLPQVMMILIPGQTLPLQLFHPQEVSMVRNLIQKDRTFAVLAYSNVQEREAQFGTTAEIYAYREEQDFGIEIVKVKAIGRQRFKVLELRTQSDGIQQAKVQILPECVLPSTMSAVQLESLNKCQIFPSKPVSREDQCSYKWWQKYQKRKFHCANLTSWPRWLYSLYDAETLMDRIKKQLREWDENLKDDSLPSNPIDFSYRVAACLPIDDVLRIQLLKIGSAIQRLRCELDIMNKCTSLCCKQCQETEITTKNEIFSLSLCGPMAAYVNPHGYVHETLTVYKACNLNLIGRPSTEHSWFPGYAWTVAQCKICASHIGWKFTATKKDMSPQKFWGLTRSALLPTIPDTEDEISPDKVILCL

Compound | IC50 [µM]
O=C1CCN(c2cccc3[nH]c(C4CCNCC4)cc23)C(=O)N1 [Example 86, 1-(2-(Piperidin-4-yl)-1H-indol-4-yl)dihydropyrimidine-2,4 (1H,3H)-dione] | 0.291
CN1CCC(c2cc3c(N4CCC(=O)NC4=O)cccc3[nH]2)CC1 [Example 87, 1-(2-(1-Methylpiperidin-4-yl)-1H-indol-4-yl)dihydropyrimidine-2,4 (1H,3H)-dione] | 0.379
Cn1c(C2CCNCC2)cc2c(N3CCC(=O)NC3=O)cccc21 [Example 88, 1-(1-Methyl-2-(piperidin-4-yl)-1H-indol-4-yl)dihydropyrimidine-2,4 (1H,3H)-dione] | 0.679
CN1CCC(c2cc3c(N4CCC(=O)NC4=O)cccc3n2C)CC1 [Example 89, 1-(1-Methyl-2-(1-methylpiperidin-4-yl)-1H-indol-4-yl)dihydropyrimidine-2,4 (1H,3H)-dione] | 1.21
Cn1ccc2c(N3CCC(=O)NC3=O)cc(N3CCNCC3)cc21 [Example 90, 1-(1-Methyl-6-(piperazin-1-yl)-1H-indol-4-yl)dihydropyrimidine-2,4 (1H,3H)-dione] | 0.771
O=C1CCN(c2cc(N3CCNCC3)cc3[nH]ccc23)C(=O)N1 [Example 91, 1-(6-(Piperazin-1-yl)-1H-indol-4-yl)dihydropyrimidine-2,4 (1H,3H)-dione] | 0.762
O=C1CCN(c2ccn3cc(C4CCNCC4)nc3c2)C(=O)N1 [Example 92, 1-(2-(Piperidin-4-yl)imidazo[1,2-a]pyridin-7-yl)dihydropyrimidine-2,4 (1H,3H)-dione] | 5.24
O=C1CCN(c2ccc3c(N4CCNCC4)noc3c2)C(=O)N1 [Example 93, 1-(3-(Piperazin-1-yl)benzo[d]isoxazol-6-yl)dihydropyrimidine-2,4 (1H,3H)-dione] | 12.8
CN1CCN(c2noc3cc(N4CCC(=O)NC4=O)ccc23)CC1 [Example 94, 1-(3-(4-Methylpiperazin-1-yl)benzo[d]isoxazol-6-yl)dihydropyrimidine-2,4 (1H,3H)-dione] | 4.2
CC(=O)N1CCN(c2noc3cc(N4CCC(=O)NC4=O)ccc23)CC1 [Example 95, 1-(3-(4-Acetylpiperazin-1-yl)benzo[d]isoxazol-6-yl)dihydropyrimidine-2,4 (1H,3H)-dione] | 6.58
O=C1CCN(c2ccc3nc(C4CCNCC4)oc3c2)C(=O)N1 [Example 96, 1-(2-(Piperidin-4-yl)benzo[d]oxazol-6-yl)dihydropyrimidine-2,4 (1H,3H1)-dione] | 3.74
CN1CCC(c2nc3ccc(N4CCC(=O)NC4=O)cc3o2)CC1 [Example 97, 1-(2-(1-Methylpiperidin-4-yl)benzo[d]oxazol-6-yl)dihydropyrimidine-2,4 (1H,3H)-dione] | 2.42
O=C1CCN(c2ccc3nc(N4CCNCC4)oc3c2)C(=O)N1 [Example 98, 1-(2-(Piperazin-1-yl)benzo[d]oxazol-6-yl)dihydropyrimidine-2,4 (1H,3H)-dione] | 3.12
CN1CCN(c2nc3ccc(N4CCC(=O)NC4=O)cc3o2)CC1 [Example 99, 1-(2-(4-Methylpiperazin-1-yl)benzo[d]oxazol-6-yl)dihydropyrimidine-2,4 (1H,3H)-dione] | 4.56
O=C1CCN(c2ccc3sc(N4CCNCC4)nc3c2)C(=O)N1 [Example 100, 1-(2-(Piperazin-1-yl)benzo[d]thiazol-5-yl)dihydropyrimidine-2,4 (1H,3H)-dione] | 1.07
O=C1CCN(c2cccc3nc(N4CCNCC4)sc23)C(=O)N1 [Example 101, 1-(2-(Piperazin-1-yl)benzo[d]thiazol-7-yl)dihydropyrimidine-2,4 (1H,3H)-dione] | 0.161
O=C1CCN(c2ccc3cc4n(c3c2)CCNC4)C(=O)N1 [Example 102, 1-(1,2,3,4-Tetrahydropyrazino[1,2-a]indol-7-yl)dihydropyrimidine-2,4 (1H,3H)-dione] | 0.274
CN1CCn2c(cc3ccc(N4CCC(=O)NC4=O)cc32)C1 [Example 103, 1-(2-Methyl-1,2,3,4-tetrahydropyrazino[1,2-a]indol-7-yl)dihydropyrimidine-2,4 (1H,3H)-dione] | 0.682

Compound | IC50 [µM]
O=C1CCN(c2ccc3c(c2)cc2n3CCNC2)C(=O)N1 [Example 104, 1-(1,2,3,4-Tetrahydropyrazino[1,2-a]indol-8-yl)dihydropyrimidine-2,4 (1H,3H)-dione] | 0.283
CN1CCn2c(cc3cc(N4CCC(=O)NC4=O)ccc32)C1 [Example 105, 1-(2-Methyl-1,2,3,4-tetrahydropyrazino[1,2-a]indol-8-yl)dihydropyrimidine-2,4 (1H,3H)-dione] | 0.46
O=C1CCN(c2ccc3c(cnn3C3CCNCC3)c2)C(=O)N1 [Example 106, 1-(1-(Piperidin-4-yl)-1H-indazol-5-yl)dihydropyrimidine-2,4 (1H,3H)-dione] | 4.04
O=C1CCN(c2ccc3nn(C4CCNCC4)cc3c2)C(=O)N1 [Example 107, 1-(2-(Piperidin-4-yl)-2H-indazol-5-yl)dihydropyrimidine-2,4 (1H,3H)-dione] | 3.78
CN1CCC(n2ncc3cc(N4CCC(=O)NC4=O)ccc32)CC1 [Example 108, 1-(1-(1-Methylpiperidin-4-yl)-1H-indazol-5-yl)dihydropyrimidine-2,4 (1H,3H)-dione] | 3.81
O=C1CCN(c2ccc3cn(C4CCNCC4)nc3c2)C(=O)N1 [Example 109, 1-(2-(Piperidin-4-yl)-2H-indazol-6-yl)dihydropyrimidine-2,4 (1H,3H)-dione] | 1.03
CN1CCC(n2cc3ccc(N4CCC(=O)NC4=O)cc3n2)CC1 [Example 110, 1-(2-(1-Methylpiperidin-4-yl)-2H-indazol-6-yl)dihydropyrimidine-2,4 (1H,3H)-dione] | 0.655
O=C1CCN(c2ccc3c(ccn3C3CCNCC3)c2)C(=O)N1 [Example 113, 1-(1-(Piperidin-4-yl)-1H-indol-5-yl)dihydropyrimidine-2,4 (1H,3H)-dione] | 1.08
CN1CCC(n2ccc3cc(N4CCC(=O)NC4=O)ccc32)CC1 [Example 114, 1-(1-(1-Methylpiperidin-4-yl)-1H-indol-5-yl)dihydropyrimidine-2,4 (1H,3H)-dione] | 1.05
CC(=O)N1CCC(n2ccc3cc(N4CCC(=O)NC4=O)ccc32)CC1 [Example 115, 1-(1-(1-Acetylpiperidin-4-yl)-1H-indol-5-yl)dihydropyrimidine-2,4 (1H,3H)-dione] | 0.933
O=C1CCN(c2ccc3c(C4CCNCC4)c[nH]c3c2)C(=O)N1 [Example 116, 1-(3-(Piperidin-4-yl)-1H-indol-6-yl)dihydropyrimidine-2,4 (1H,3H)-dione] | 0.368
CN1CCC(c2c[nH]c3cc(N4CCC(=O)NC4=O)ccc23)CC1 [Example 117, 1-(3-(1-Methylpiperidin-4-yl)-1H-indol-6-yl)dihydropyrimidine-2,4 (1H,3H)-dione] | 2.16
CC(=O)N1CCC(c2c[nH]c3cc(N4CCC(=O)NC4=O)ccc23)CC1 [Example 118, 1-(3-(1-Acetylpiperidin-4-yl)-1H-indol-6-yl)dihydropyrimidine-2,4 (1H,3H)-dione] | 0.389
CN1CCC(c2cn(C)c3cc(N4CCC(=O)NC4=O)ccc23)CC1 [Example 119, 1-(1-Methyl-3-(1-methylpiperidin-4-yl)-1H-indol-6-yl)dihydropyrimidine-2,4 (1H,3H)-dione] | 1.45
O=C1CCN(c2ccc3ccn(C4CCNCC4)c3c2)C(=O)N1 [Example 120, 1-(1-(Piperidin-4-yl)-1H-indol-6-yl)dihydropyrimidine-2,4 (1H,3H)-dione] | 2.21
CN1CCC(n2ccc3ccc(N4CCC(=O)NC4=O)cc32)CC1 [Example 121, 1-(1-(1-Methylpiperidin-4-yl)-1H-indol-6-yl)dihydropyrimidine-2,4 (1H,3H)-dione] | 3.84
CC(=O)N1CCC(n2ccc3ccc(N4CCC(=O)NC4=O)cc32)CC1 [Example 122, 1-(1-(1-Acetylpiperidin-4-yl)-1H-indol-6-yl)dihydropyrimidine-2,4 (1H,3H)-dione] | 2.12
